From patent US20220117948A1, “TRITERPENOID ANTIFUNGALS FOR THE TREATMENT OF FUNGAL OSTEO-ARTICULAR INFECTIONS” (Scynexis, Inc., priority 2019, published 2022)
Values belong to the compound of their own block, whether it stands above or below them. Starred links: 1 amine or outer side, 2 acyl side, 3 side chain; linkers in the order of their positions; H or OH if unused. Positions of bridges follow the written chain, without caps; N, C: chain ends. Non-standard residues stand in square brackets, D forms with d. Residues, ends and D or L forms follow the SMILES beside them. *: point of attachment. pTerphenylCO(4''-OnC5H11) = CCCCCOc1ccc(-c2ccc(-c3ccc(C(=O)*)cc3)cc2)cc1; Orn(4R-OH,5R-OH) = O=C([C@H](C[C@@H](O)[C@@H](O)N[*:3])N[*:1])[*:2]; hTyr(3S-OH,4S-OH) = N[C@H](C(=O)O)[C@H](O)[C@@H](O)c1ccc(O)cc1; Pro(3S-OH,4S-Me) = C[C@H]1CN[C@H](C(=O)O)[C@H]1O; Hyp = O=C(O)[C@@H]1C[C@@H](O)CN1

Columns and labels:
[1] = test system: Candida and non-Candida isolates causing fungaemia; conditions: 178 Candida and non-Candida isolates causing fungaemia; EUCAST E Def 7.3 and CLSI M27-A3; cited from earlier work
[2] = test system: sessile (biofilm) forms of Candida and non-Candida isolates; conditions: XTT reduction assay, confirmed by scanning electron microscopy; cited from earlier work
[3] = test system: Candida tropicalis spondylodiscitis; assay type: in vivo, human; conditions: Example B: person, Candida tropicalis spondylodiscitis L5/S1; oral 750 mg BID 2 days then 750 mg QD (citrate salt tablets); 88 days of treatment
Description: (§1) This example presents treatment courses of two patients with Candida spondylodiscitis who were enrolled in an “Open-Label Study to Evaluate Efficacy and Safety of SCY-078 in Patients With Refractory or Intolerant Fungal Diseases (FURI)” (clinicaltrials.gov identifier NCT03059992).
(§2) Objective: The objective of the study is to evaluate the efficacy of orally administered SCY-078 for the treatment of fungal infections that are refractory to or intolerant of approved antifungal agents.
(§3) Study design: This is a multicenter, open-label, non-comparator, single-arm study to evaluate the efficacy, safety, and pharmacokinetics (PK) of SCY-078 (administered as the citrate salt) in male and female subjects≥18 years of age with documented invasive and/or severe candidiasis that has been refractory to or intolerant of, or has shown toxicities associated with standard of care (SoC) antifungal treatment. Subjects must have a documented eligible acute or chronic invasive candidiasis (including candidemia) and meet all study criteria to be considered for enrollment. […]
(§4) Efficacy: Efficacy will be assessed primarily in terms of global success (both clinical success and mycological success). Complete global response, partial global response, clinical success, and mycological success will also be assessed. […]

[4] = test system: Candida albicans spondylodiscitis; assay type: in vivo, human; conditions: Example A: person, Candida albicans spondylodiscitis L4/L5; oral 750 mg BID 2 days then 750 mg QD (citrate salt tablets); 277 days of treatment
Description: as §1, §2, §3, §4

[5] = design: species or system male pigmented Long-Evans rats; conditions: rat, in vivo
Protocol: As a first step of the feasibility evaluation, the tissue distribution of SCY-078 was evaluated in an animal model. […] WH rats were used for mass balance and pharmacokinetic (PK) determinations after i.v. and oral doses, and both WH and LE rats were used for Quantitative whole-body autoradiography (QWBA) determinations. Dose levels were selected to reflect the clinically relevant 11.2-μg·h/ml target exposure for Candida spp. infections. The concentration, homogeneity, radio purity, and stability of dosing formulations were confirmed to be acceptable before dosing. For QWBA whole-body sections (˜40 μm thick via Leica CM3600 cryomicrotome; Nussloch, Germany), where all major tissues, organs, and biological fluids were represented, sections were exposed for phosphor imaging (Fuji Biomedical, Stamford, Conn.) together with calibration standards. […] Quantification was performed by image densitometry with MCID image analysis software (v. 7.0; Interfocus Imaging Ltd., Linton, Cambridge, UK), and a standard curve was constructed from the integrated response (molecular dynamics counts [MDC]/mm2) and the nominal concentrations of the 14C-calibration standards. The concentrations of radioactivity were expressed as [14C]SCY-078 μg equiv/g tissue. The lower limit of quantitation was 0.024 and 0.049 μg equiv/g of tissue for i.v. and oral doses of SCY-078, respectively. […]

[6] = cited from earlier work
[7] = mice; cited from earlier work

exposure observed in bone compared with plasma [5]: exceeded the exposure measured in plasma
exposure observed in bone marrow compared with plasma [5]: exceeded the exposure measured in plasma
Compound: CC(C)[C@@H](C)[C@@]1(C)CC[C@]2(C)[C@H]3CC[C@@H]4[C@@]5(COC[C@@]4(C)[C@@H](OC[C@](C)(N)C(C)(C)C)[C@H](n4ncnc4-c4ccncc4)C5)C3=CC[C@@]2(C)[C@@H]1C(=O)O [SCY-078, (1S,4aR,6aS,7R,8R,10aR,10bR,12aR,14R,15R)-15-[[(2R)-2-amino-2,3,3-trimethylbutyl]oxy]-8-[(1R)-1,2-dimethylpropyl]-14-[5-(4-pyridinyl)-1H-1,2,4-triazol-1-yl]-1,6,6a,7,8,9,10,10a,10b,11,12,12a-dodecahydro-1,6a,8,10a-tetramethyl-4H-1,4a-propano-2H-phenanthro[1,2-c]pyran-7-carboxylic acid]
in vitro activity against planktonic form [1]: potent in vitro activity
antibiofilm activity [2]: activity against the biofilms
patient's response to date [3]: resolved
patient's response to date [4]: improved

Compound: CCCCCOc1ccc(-c2ccc(-c3ccc(C(=O)N[C@H]4C[C@@H](O)[C@@H](O)NC(=O)[C@@H]5[C@@H](O)[C@@H](C)CN5C(=O)[C@H]([C@@H](C)O)NC(=O)[C@H]([C@H](O)[C@@H](O)c5ccc(O)cc5)NC(=O)[C@@H]5C[C@@H](O)CN5C(=O)[C@H]([C@@H](C)O)NC4=O)cc3)cc2)cc1 [anidulafungin] ({pTerphenylCO(4''-OnC5H11)}-[Orn(4R-OH,5R-OH)]T[Hyp][hTyr(3S-OH,4S-OH)]T[Pro(3S-OH,4S-Me)]; lactam 1-C)
bone/plasma concentration ratio ([6]; neonatal rats after a single dose): 0.21
skeletal muscle concentrations compared with plasma ([6]; rats): comparable to those in plasma

Compound: CC[C@H](C)C[C@H](C)CCCCCCCCC(=O)N[C@H]1C[C@@H](O)[C@@H](NCCN)NC(=O)[C@@H]2[C@@H](O)CCN2C(=O)[C@H]([C@H](O)CCN)NC(=O)[C@H]([C@H](O)[C@@H](O)c2ccc(O)cc2)NC(=O)[C@@H]2C[C@@H](O)CN2C(=O)[C@H]([C@@H](C)O)NC1=O [caspofungin]
skeletal muscle concentrations as % of those in plasma [7]: less than 50%
